# Source: ChEMBL document CHEMBL1201862, “PubChem BioAssay data set” (2004)
#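 Values below derive from 48-hour exposures of cells grown in 96-well plates, with endpoints linearly interpolated between the two concentrations bracketing the appropriate inhibition level. GI50: concentration for 50% inhibition of growth.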 Activity calls are given as the source filed them. No stated cut-off is given here; in the data, active = GI50 up to about 1.1 µM and inactive = higher.
# How the values were obtained:
# Experiment in all cases: NCI anticancer screen, dose series, 48 h
# A498 = system: A498
# A549 = system: A549
# CAKI-1 = system: CAKI-1
# COLO 205 = system: COLO 205
# DLD-1 = system: DLD-1
# DMS-114 = system: DMS-114
# DMS-273 = system: DMS-273
# EKVX = system: EKVX
# HCC 2998 = system: HCC 2998
# HCT-116 = system: HCT-116
# HOP-18 = system: HOP-18
# HOP-62 = system: HOP-62
# HOP-92 = system: HOP-92
# HT-29 = system: HT-29
# IGROV-1 = system: IGROV-1
# K562 = system: K562
# KM12 = system: KM12
# LOX IMVI = system: LOX IMVI
# M19-MEL = system: M19-MEL
# MCF7 = system: MCF7
# MOLT-4 = system: MOLT-4
# Malme-3M = system: Malme-3M
# NCI-H226 = system: NCI-H226
# NCI-H23 = system: NCI-H23
# NCI-H460 = system: NCI-H460
# NCI-H522 = system: NCI-H522
# NCI/ADR-RES = system: NCI/ADR-RES
# OVCAR-3 = system: OVCAR-3
# OVCAR-4 = system: OVCAR-4
# OVCAR-5 = system: OVCAR-5
# OVCAR-8 = system: OVCAR-8
# RPMI-8226 = system: RPMI-8226
# RXF 393 = system: RXF 393
# SF-295 = system: SF-295
# SF-539 = system: SF-539
# SK-MEL-28 = system: SK-MEL-28
# SK-MEL-2 = system: SK-MEL-2
# SK-MEL-5 = system: SK-MEL-5
# SK-OV-3 = system: SK-OV-3
# SN12C = system: SN12C
# SNB-19 = system: SNB-19
# SNB-75 = system: SNB-75
# SW-620 = system: SW-620
# U-251 = system: U-251
# UACC-257 = system: UACC-257
# UACC-62 = system: UACC-62
# UO-31 = system: UO-31
# XF498 = system: XF498
# ACHN = system: ACHN
# CCRF-CEM = system: CCRF-CEM
# HCT-15 = system: HCT-15
# HL-60 = system: HL-60
# LXFL 529 = system: LXFL 529
# M14 = system: M14
# SF-268 = system: SF-268
# SR = system: SR
# KM-20L2 = system: KM-20L2
# SNB-78 = system: SNB-78
# TK-10 = system: TK-10
structure (smiles),measurement,setting,value
O=C(O)/C=C/c1c[nH]cn1,GI50,A498,> 500 µM (inactive)
same,GI50,A549,> 500 µM (inactive)
same,GI50,CAKI-1,> 500 µM (inactive)
same,GI50,COLO 205,> 500 µM (inactive)
same,GI50,DLD-1,> 500 µM (inactive)
same,GI50,DMS-114,> 500 µM (inactive)
same,GI50,DMS-273,> 500 µM (inactive)
same,GI50,EKVX,> 500 µM (inactive)
same,GI50,HCC 2998,> 500 µM (inactive)
same,GI50,HCT-116,> 500 µM (inactive)
same,GI50,HOP-18,> 500 µM (inactive)
same,GI50,HOP-62,493 µM (inactive)
same,GI50,HOP-92,> 500 µM (inactive)
same,GI50,HT-29,> 500 µM (inactive)
same,GI50,IGROV-1,> 500 µM (inactive)
same,GI50,K562,> 500 µM (inactive)
same,GI50,KM12,> 500 µM (inactive)
same,GI50,LOX IMVI,> 500 µM (inactive)
same,GI50,M19-MEL,> 500 µM (inactive)
same,GI50,MCF7,> 500 µM (inactive)
same,GI50,MOLT-4,> 500 µM (inactive)
same,GI50,Malme-3M,> 500 µM (inactive)
same,GI50,NCI-H226,> 500 µM (inactive)
same,GI50,NCI-H23,> 500 µM (inactive)
same,GI50,NCI-H460,> 500 µM (inactive)
same,GI50,NCI-H522,> 500 µM (inactive)
same,GI50,NCI/ADR-RES,> 500 µM (inactive)
same,GI50,OVCAR-3,> 500 µM (inactive)
same,GI50,OVCAR-4,> 500 µM (inactive)
same,GI50,OVCAR-5,> 500 µM (inactive)
same,GI50,OVCAR-8,> 500 µM (inactive)
same,GI50,RPMI-8226,> 500 µM (inactive)
same,GI50,RXF 393,> 500 µM (inactive)
same,GI50,SF-295,> 500 µM (inactive)
same,GI50,SF-539,> 500 µM (inactive)
same,GI50,SK-MEL-28,> 500 µM (inactive)
same,GI50,SK-MEL-2,> 500 µM (inactive)
same,GI50,SK-MEL-5,> 232 µM (inactive)
same,GI50,SK-OV-3,> 500 µM (inactive)
same,GI50,SN12C,> 500 µM (inactive)
same,GI50,SNB-19,> 500 µM (inactive)
same,GI50,SNB-75,> 500 µM (inactive)
same,GI50,SW-620,> 500 µM (inactive)
same,GI50,U-251,> 500 µM (inactive)
same,GI50,UACC-257,> 500 µM (inactive)
same,GI50,UACC-62,> 500 µM (inactive)
same,GI50,UO-31,> 500 µM (inactive)
same,GI50,XF498,> 500 µM (inactive)
O=c1n(CCCCn2c(=O)n(CC3CS3)c3ccccc32)c2ccccc2n1CC1CS1 (stereo unspecified),GI50,ACHN,25.1 µM (inactive)
same,GI50,CAKI-1,17.3 µM (inactive)
same,GI50,CCRF-CEM,17.1 µM (inactive)
same,GI50,COLO 205,19 µM (inactive)
same,GI50,DMS-114,> 10 µM (inactive)
same,GI50,DMS-273,19.2 µM (inactive)
same,GI50,EKVX,24.3 µM (inactive)
same,GI50,HCC 2998,19.7 µM (inactive)
same,GI50,HCT-116,18.7 µM (inactive)
same,GI50,HCT-15,18.2 µM
same,GI50,HL-60,2.17 µM (inactive)
same,GI50,HOP-62,22.3 µM (inactive)
same,GI50,HOP-92,23.9 µM (inactive)
same,GI50,IGROV-1,13.5 µM (inactive)
same,GI50,K562,15.7 µM (inactive)
same,GI50,KM12,11.4 µM (inactive)
same,GI50,LOX IMVI,3.14 µM (inactive)
same,GI50,LXFL 529,14.3 µM (inactive)
same,GI50,M14,8.99 µM (inactive)
same,GI50,M19-MEL,19.2 µM (inactive)
same,GI50,MOLT-4,1.95 µM (inactive)
same,GI50,Malme-3M,10.5 µM (inactive)
same,GI50,NCI-H522,16.6 µM (inactive)
same,GI50,OVCAR-3,10.4 µM (inactive)
same,GI50,OVCAR-4,15.5 µM (inactive)
same,GI50,RPMI-8226,10.9 µM (inactive)
same,GI50,SF-268,24.9 µM (inactive)
same,GI50,SK-MEL-2,11.9 µM (inactive)
same,GI50,SK-OV-3,58.1 µM (inactive)
same,GI50,SN12C,14.1 µM (inactive)
same,GI50,SNB-75,26.1 µM (inactive)
same,GI50,SR,3.87 µM (inactive)
same,GI50,SW-620,18.6 µM (inactive)
same,GI50,UACC-62,> 10 µM (inactive)
same,GI50,XF498,6.56 µM (inactive)
Brc1ccc(C2CC(c3cccc4ccccc34)=Nc3ccccc3S2)cc1 (stereo unspecified),GI50,A498,> 100 µM (inactive)
same,GI50,A549,> 100 µM (inactive)
same,GI50,ACHN,> 100 µM (inactive)
same,GI50,CAKI-1,> 100 µM (inactive)
same,GI50,CCRF-CEM,29 µM (inactive)
same,GI50,COLO 205,> 100 µM (inactive)
same,GI50,DLD-1,51.8 µM (inactive)
same,GI50,DMS-273,80 µM (inactive)
same,GI50,EKVX,37.1 µM (inactive)
same,GI50,HCC 2998,30.4 µM (inactive)
same,GI50,HCT-116,31.3 µM (inactive)
same,GI50,HCT-15,35.3 µM
same,GI50,HL-60,26.4 µM (inactive)
same,GI50,HOP-62,> 100 µM (inactive)
same,GI50,HOP-92,> 100 µM (inactive)
same,GI50,HT-29,46.7 µM (inactive)
same,GI50,IGROV-1,> 100 µM (inactive)
same,GI50,K562,26.2 µM (inactive)
same,GI50,KM-20L2,96.8 µM (inactive)
same,GI50,KM12,70.5 µM (inactive)
same,GI50,LOX IMVI,44.8 µM (inactive)
same,GI50,LXFL 529,> 100 µM (inactive)
same,GI50,M14,> 100 µM (inactive)
same,GI50,M19-MEL,40.2 µM (inactive)
same,GI50,MOLT-4,23.5 µM (inactive)
same,GI50,NCI-H226,> 100 µM (inactive)
same,GI50,NCI-H23,86.5 µM (inactive)
same,GI50,NCI-H460,> 100 µM (inactive)
same,GI50,NCI-H522,22.5 µM (inactive)
same,GI50,OVCAR-4,44.6 µM (inactive)
same,GI50,OVCAR-5,> 100 µM (inactive)
same,GI50,OVCAR-8,> 100 µM (inactive)
same,GI50,RPMI-8226,10.9 µM (inactive)
same,GI50,RXF 393,> 100 µM (inactive)
same,GI50,SF-268,> 100 µM (inactive)
same,GI50,SF-295,37.3 µM (inactive)
same,GI50,SF-539,> 100 µM (inactive)
same,GI50,SK-MEL-28,> 100 µM (inactive)
same,GI50,SK-MEL-2,> 100 µM (inactive)
same,GI50,SK-MEL-5,> 100 µM (inactive)
same,GI50,SK-OV-3,> 100 µM (inactive)
same,GI50,SN12C,> 100 µM (inactive)
same,GI50,SNB-19,> 100 µM (inactive)
same,GI50,SNB-75,> 100 µM (inactive)
same,GI50,SNB-78,82 µM (inactive)
same,GI50,SR,27.5 µM (inactive)
same,GI50,SW-620,16.7 µM (inactive)
same,GI50,TK-10,> 100 µM (inactive)
same,GI50,U-251,30.2 µM (inactive)
same,GI50,UACC-257,> 100 µM (inactive)
same,GI50,UACC-62,71.9 µM (inactive)
same,GI50,UO-31,54.3 µM (inactive)
same,GI50,XF498,> 100 µM (inactive)
